Data taken from patent US20060079453A1, “Hla binding peptides and their uses” (priority 2002, published 2006).
Where two headings read alike, the source gives them in different places. No end group written: not given here.

Columns and labels:
Experiment in all cases: biochemical
Type in all cases: binding
[1] = target: HLA-DR DRB1*1101 (DR11) (Homo sapiens, UniProt P01903+P01911, A100R/A169T/A87E/I96F/K41T/L162R/M171V/P40S/Q125H/Q178H/Q39Y/Q99D/R42S/S66Y/T262R/V115G/W38E)
[2] = target: HLA-DR DRB4*0101 (DR53) (Homo sapiens, UniProt P01903+P13762, G164S)
[3] = target: HLA-DR DRB5*0101 (DR51) (Homo sapiens, UniProt P01903+Q30154)
[4] = target: HLA-DR DRB1*1302 (DR13) (Homo sapiens, UniProt P01903+P01911, A100E/A169T/K41T/L162R/M171V/P40S/Q125H/Q178H/Q39Y/Q99D/R42S/S66N/T262R/V115G/W38E/Y61H)
[5] = target: HLA-DR DRB1*1501 (DR15) (Homo sapiens, UniProt P01903+P01911)
[6] = target: HLA-DR DRB1*0301 (DR3) (Homo sapiens, UniProt P01903+P01911, A100K/A102G/A103R/A169T/F55Y/I96L/K41T/L162R/M171V/P40S/Q125H/Q178H/Q39Y/R42S/S66N/T106N/T262R/W38E/Y61H)
[7] = target: HLA-DR DRB1*0401 (DR4) (Homo sapiens, UniProt P01903+P01911, A100K/A169T/F76Y/I96L/K127E/L162R/M171V/N62H/P40V/Q125Y/R42H/S133A/S149N/S66Y/V115G/V209L/W38E)
[8] = target: HLA-DR DRB1*0701 (DR7) (Homo sapiens, UniProt P01903+P01911, A100R/A102G/A103Q/D57E/D86V/E43K/F76Y/K127E/L162R/M171V/P40G/Q125H/Q99D/R33Q/R42Y/R54Q/S133A/S66F/T210M/V115G/Y107V/Y59L/Y89S)
[9] = target: HLA-DR DRB1*0101 (DR1) (Homo sapiens, UniProt P01903+P01911, A100R/D57E/F55L/F60I/F76Y/I96L/L162R/M171V/P40L/Q125E/R42F/V115G/Y59C)

Chain of HLA-DR DRB1*0301 (DR3) (P01903 26-254 limits assumed, other chains not shown): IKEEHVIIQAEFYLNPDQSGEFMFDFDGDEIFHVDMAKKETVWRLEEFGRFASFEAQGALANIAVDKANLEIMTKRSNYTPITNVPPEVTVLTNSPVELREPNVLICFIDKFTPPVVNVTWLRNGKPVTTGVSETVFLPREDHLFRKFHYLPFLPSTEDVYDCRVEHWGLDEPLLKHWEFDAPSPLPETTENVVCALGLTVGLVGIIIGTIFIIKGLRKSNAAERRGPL
Chain of HLA-DR DRB1*1302 (DR13) (P01903 26-254 limits assumed, other chains not shown): as above
Chain of HLA-DR DRB1*1101 (DR11) (P01903 26-254 limits assumed, other chains not shown): as above

DFVFADLRIVYRDGN
IC50 ([1]; read-out: DRB1 *1101): 6.96 µM | IC50 ([2]; read-out: DRB4 *0101): 6.71 µM | IC50 ([3]; read-out: DRB5 *0101): 8.43 µM

EFAFKDLFVVYRDSI
IC50 ([1]; read-out: DRB1 *1101): 9.5 µM | IC50 ([4]; read-out: DRBI *1302): 10 µM | IC50 ([5]; read-out: DRBI *1501): 5.36 µM | IC50 ([3]; read-out: DRB5 *0101): 6 µM

LREYILDLHPEPTDL
IC50 ([1]; read-out: DRB1 *1101): 9.83 µM | IC50 ([3]; read-out: DRB5 *0101): > 40.4 µM

VGGVYLLPRRGPRLGV
IC50 ([6]; read-out: DRB1 *0301): 237 µM

YIVMSDWTGGA
IC50 [6]: 13.4 µM

REYILDLHPEPTDLF
IC50 ([1]; read-out: DRB1 *1101): 4.15 µM | IC50 ([5]; read-out: DRBI *1501): > 33.1 µM | IC50 ([3]; read-out: DRB5 *0101): > 31.4 µM

TEGRCLHYTVDKSKPK
IC50 ([7]; DRB1 *0401): 0.2 µM | IC50 ([8]; DRB1 *0701): > 250 µM | IC50 ([1]; DRB1 *1101): > 1.25 µM

CC[C@H](C)[C@H](NC(=O)[C@H](C)NC(=O)[C@H](CCC(N)=O)NC(=O)[C@H](CCCNC(=N)N)NC(=O)[C@H](CC(C)C)NC(=O)[C@H](C)NC(=O)[C@@H](NC(=O)[C@H](Cc1c[nH]cn1)NC(=O)[C@H](Cc1c[nH]cn1)NC(=O)[C@@H]1CCCN1)[C@@H](C)O)C(=O)N[C@@H](CC(C)C)C(=O)N[C@@H](CO)C(=O)N[C@@H](Cc1c[nH]c2ccccc12)C(=O)NCC(=O)N[C@@H](CCC(=O)O)C(=O)N[C@@H](CC(C)C)C(=O)N[C@@H](CCSC)C(=O)N[C@H](C(=O)N[C@@H](CC(C)C)C(=O)N[C@@H](C)C(=O)O)[C@@H](C)O
IC50 [8]: 14.4 µM | IC50 [1]: 3.12 µM | IC50 [5]: 0.0053 µM | IC50 [2]: 0.048 µM

EEYVRFDSDVGE
IC50 ([9]; DRB1 *0101): ≥ 50 µM | IC50 ([7]; DRB1 *0401): 0.216 µM | IC50 ([1]; DRB1 *1101): ≥ 200 µM | IC50 ([3]; DRB5 *0101): ≥ 200 µM

LSFFLKEKGGLDGLI
IC50 ([1]; read-out: DRB1 *1101): 0.614 µM | IC50 ([4]; read-out: DRBI *1302): > 12 µM | IC50 ([5]; read-out: DRBI *1501): > 39.7 µM

SHDLMLLRISEPAEL
IC50 ([4]; read-out: DRBI *1302): 0.0058 µM | IC50 ([5]; read-out: DRBI *1501): 1.1 µM | IC50 ([2]; read-out: DRB4 *0101): 0.012 µM | IC50 ([3]; read-out: DRB5 *0101): ≥ 100 µM

LSHFLKEKGGLEGL
IC50 ([9]; read-out: DRB1 *0101): 0.537 µM | IC50 ([6]; read-out: DRB1 *0301): > 341 µM

LWWVNNESLPVSPRL
IC50 [6]: 0.315 µM

AAAKAAAAAAYAA
IC50 [6]: > 900 µM | IC50 ([7]; DRB1 *0401): 0.229 µM

DPNANPNVDPNANPNVNANPNANPNANP(X4)QKWAAVVVPS
IC50 ([1]; read-out: DRB1 *1101): > 12.5 µM | IC50 ([5]; read-out: DRBI *1501): > 7.58 µM | IC50 ([2]; read-out: DRB4 *0101): > 72.5 µM | IC50 ([3]; read-out: DRB5 *0101): > 2.9 µM

YAGIRRDGLLLRLVD
IC50 [6]: 0.0096 µM

SEVYDFAFADLTVVY
IC50 ([9]; DRB1 *0101): 0.031 µM | IC50 [6]: 3 µM | IC50 ([7]; DRB1 *0401): 0.26 µM | IC50 ([8]; DRB1 *0701): 1.85 µM | IC50 ([1]; DRB1 *1101): > 18 µM | IC50 ([4]; DRBI *1302): > 13.1 µM | IC50 ([5]; DRBI *1501): 0.955 µM | IC50 ([3]; DRB5 *0101): 11.8 µM

TVVYREGNPFGICKL
IC50 ([1]; read-out: DRB1 *1101): > 18 µM | IC50 ([4]; read-out: DRBI *1302): > 13.1 µM | IC50 ([3]; read-out: DRB5 *0101): 48.8 µM

VRTLQQLLMGTCTIV
IC50 ([4]; read-out: DRBI *1302): 0.037 µM | IC50 ([5]; read-out: DRBI *1501): 1.83 µM | IC50 ([3]; read-out: DRB5 *0101): > 15.3 µM

Ac-ASQKRPSQRHGSKYLATAST
IC50 [6]: > 900 µM

DRTLMSAMTNLAALE
IC50 ([9]; read-out: DRB1 *0101): 0.097 µM | IC50 ([6]; read-out: DRB1 *0301): 64.3 µM | IC50 ([7]; read-out: DRB1 *0401): 0.013 µM | IC50 ([8]; read-out: DRB1 *0701): 0.383 µM

MTLYQIQVMKRNQKQ
IC50 ([9]; DRB1 *0101): 1.22 µM | IC50 ([7]; DRB1 *0401): 0.117 µM | IC50 ([8]; DRB1 *0701): 31.1 µM | IC50 ([4]; DRBI *1302): 0.323 µM | IC50 ([5]; DRBI *1501): 2.43 µM | IC50 ([2]; DRB4 *0101): 0.082 µM | IC50 ([3]; DRB5 *0101): 0.022 µM

SHDLMLLRLSEPAK
IC50 ([9]; read-out: DRB1 *0101): 0.056 µM | IC50 ([6]; read-out: DRB1 *0301): 2.4 µM | IC50 ([7]; read-out: DRB1 *0401): 2.24 µM

YNFACTELKLVYRDD
IC50 ([9]; DRB1 *0101): 7.52 µM | IC50 [6]: 0.346 µM | IC50 ([7]; DRB1 *0401): 1.98 µM | IC50 ([8]; DRB1 *0701): 2.87 µM | IC50 ([4]; DRBI *1302): 10.2 µM | IC50 ([2]; DRB4 *0101): 12.9 µM

KSNFLNCYVSGFHPSD
IC50 ([9]; DRB1 *0101): 2.5 µM | IC50 [6]: > 900 µM | IC50 ([1]; DRB1 *1101): 5 µM

EEDIEIIFIQEEEY
IC50 ([1]; read-out: DRB1 *1101): > 20.6 µM | IC50 ([3]; read-out: DRB5 *0101): 46.1 µM

MLDLQPEITDLYCYE
IC50 ([1]; read-out: DRB1 *1101): > 15.2 µM | IC50 ([4]; read-out: DRBI *1302): > 12 µM | IC50 ([5]; read-out: DRBI *1501): > 48.4 µM | IC50 ([2]; read-out: DRB4 *0101): 0.02 µM | IC50 ([3]; read-out: DRB5 *0101): > 15.3 µM

YEEYVRFDSDVGE
IC50 ([9]; DRB1 *0101): ≥ 50 µM | IC50 ([7]; DRB1 *0401): 0.4 µM | IC50 ([1]; DRB1 *1101): ≥ 200 µM | IC50 ([3]; DRB5 *0101): ≥ 200 µM

LAHYDVLLSYPNKTA
IC50 ([1]; read-out: DRB1 *1101): 0.38 µM | IC50 ([5]; read-out: DRBI *1501): 0.082 µM | IC50 ([2]; read-out: DRB4 *0101): 0.589 µM

CIVYRDCIAYAACHK
IC50 ([7]; read-out: DRB1 *0401): 0.928 µM | IC50 ([8]; read-out: DRB1 *0701): > 14.6 µM | IC50 ([1]; read-out: DRB1 *1101): 35.6 µM | IC50 ([3]; read-out: DRB5 *0101): 1.91 µM

LGFFPDHQLDPAFRANT
IC50 ([6]; read-out: DRB1 *0301): 12 µM
